What was measured:
Idelalisib = compound: CC[C@H](Nc1ncnc2[nH]cnc12)c1nc2cccc(F)c2c(=O)n1-c1ccccc1 [Idelalisib]; assay: relative viability (nuclei count vs DMSO), 5 days (fraction); higher = more cells survive
Procedure, shortened: (§1)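 MetaXpress counted nuclei in 4× images of lung cancer cell lines that had been fixed, permeabilised and Hoechst-stained in one step. Before that, cells in 1536-well plates were kept overnight at 37 °C, pinned with five √10-spaced library-drug doses on vehicle-anchored plates, and cultured 5 days without medium change. Viability takes treated-well nuclei over vehicle-well nuclei and uses the median across plates. Plates were accepted only at control CV below 25% and at least one doubling.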

Pemetrexed = compound: Nc1nc2[nH]cc(CCc3ccc(C(=O)N[C@@H](CCC(=O)O)C(=O)O)cc3)c2c(=O)[nH]1 [Pemetrexed]; assay: as above
Procedure, shortened: as §1

| Cell Line | relative viability (Idelalisib; 0.04 µM) | relative viability (Idelalisib; 0.1265 µM) | relative viability (Idelalisib; 0.4 µM) | relative viability (Idelalisib; 1.265 µM) | relative viability (Idelalisib; 4 µM) | relative viability (Pemetrexed; 0.002 µM) | relative viability (Pemetrexed; 0.006325 µM) | relative viability (Pemetrexed; 0.02 µM) | relative viability (Pemetrexed; 0.06325 µM) | relative viability (Pemetrexed; 0.2 µM) | relative viability (Pemetrexed; 0.2 µM, anchor plate) |
| --- | --- | --- | --- | --- | --- | --- | --- | --- | --- | --- | --- |
| 201T | 0.985 | 1.01 | 0.885 | 1.06 | 0.867 | 1.01 | 0.998 | 1.04 | 0.996 | 0.91 | 0.323 |
| A549 | 1.01 | 0.956 | 0.747 | 1.04 | 0.825 | 0.938 | 0.948 | 1.09 | 0.973 | 1.01 | – |
| A-427 | 1.14 | 1.01 | 0.883 | 1.01 | 0.904 | 0.94 | 1.05 | 1.07 | 0.992 | 0.939 | 0.98 |
| ABC-1 | 0.917 | 0.938 | 0.955 | 0.895 | 0.961 | 0.911 | 1.02 | 1.22 | 0.976 | 0.822 | – |
| BEN | 1.05 | 0.883 | 0.975 | 0.968 | 0.875 | 0.964 | 1 | 1.06 | 0.947 | 0.769 | 0.829 |
| CAL-12T | 1.1 | 1.08 | 1.01 | 1.11 | 1.08 | 0.936 | 0.938 | 1.16 | 0.967 | 0.863 | 1.19 |
| COR-L23 | 1.12 | 1.05 | 0.931 | 1.14 | 0.949 | 0.998 | 0.979 | 1.04 | 0.375 | 0.211 | 0.2 |
| COR-L 105 | 1.03 | 0.997 | 0.802 | 0.976 | 0.752 | 0.947 | 0.896 | 1.14 | 0.883 | 0.978 | 1.12 |
| Calu-6 | 1.04 | 1.04 | 0.977 | 0.998 | 0.947 | 0.92 | 0.96 | 1.1 | 1 | 0.886 | – |
| ChaGo-K-1 | 1.09 | 0.914 | 0.946 | 1.02 | 0.992 | 1.05 | 0.942 | 0.98 | 0.418 | 0.312 | 0.261 |
| EBC-1 | 1 | 1.1 | 0.986 | 0.965 | 0.88 | 0.951 | 0.951 | 1.09 | 1.01 | 0.735 | – |
| EKVX | 0.925 | 1.01 | 0.849 | 0.854 | 0.8 | 0.854 | 0.984 | 1.03 | 0.995 | 0.734 | 0.404 |
| EMC-BAC-2 | 1.25 | 0.989 | 0.878 | 1.01 | 1.11 | 0.868 | 1.04 | 1.12 | 0.966 | 0.782 | 0.444 |
| EPLC-272H | 1.07 | 0.9 | 0.815 | 0.902 | 0.873 | 0.888 | 0.892 | 1.1 | 0.935 | 0.798 | 0.313 |
| H3255 | 1.06 | 0.946 | 0.925 | 0.959 | 0.879 | 0.819 | 1.03 | 0.986 | 1.07 | 0.827 | 0.587 |
| HARA | 1.02 | 1.05 | 0.783 | 1.23 | 0.794 | 0.944 | 1.05 | 1.12 | 0.904 | 0.225 | 0.241 |
| HCC-15 | 1.12 | 1.04 | 0.914 | 1.13 | 1.02 | 0.823 | 0.948 | 1.09 | 0.978 | 0.402 | 0.227 |
| HCC-44 | 1.04 | 0.953 | 0.98 | 1.08 | 1.13 | 0.839 | 0.989 | 1.06 | 0.995 | 0.796 | 0.647 |
| HCC-78 | 1.05 | 0.923 | 0.811 | 1.01 | 0.729 | 0.674 | 0.98 | 0.877 | 0.43 | – | – |
| HCC-366 | 1.06 | 0.993 | 0.986 | 0.987 | 0.966 | 0.964 | 0.985 | 1.07 | 0.991 | – | – |
| HCC-827 | 1.08 | 1.05 | 1.01 | 1.08 | 0.952 | 0.908 | 1.09 | 1.05 | 1.02 | – | – |
| HOP-62 | 1.07 | 0.998 | 0.936 | 1.14 | 0.963 | 0.864 | 0.949 | 1.08 | 0.964 | – | – |
| IA-LM | 0.975 | 1.05 | 1.02 | 1.23 | 0.955 | 0.838 | 0.937 | 0.959 | 0.988 | 0.865 | – |
| LC-2-ad | 1.05 | 1 | 0.962 | 1.12 | 0.93 | 0.815 | 0.974 | 0.967 | 0.296 | 0.3 | 0.285 |
| LCLC-97TM1 | 1.17 | 0.92 | 0.777 | 1.09 | 0.911 | 0.913 | 0.891 | 0.93 | 1.02 | – | – |

| Cell Line | relative viability (Idelalisib; 0.04 µM) | relative viability (Idelalisib; 0.1265 µM) | relative viability (Idelalisib; 0.4 µM) | relative viability (Idelalisib; 1.265 µM) | relative viability (Idelalisib; 4 µM) | relative viability (Pemetrexed; 0.002 µM) | relative viability (Pemetrexed; 0.006325 µM) | relative viability (Pemetrexed; 0.02 µM) | relative viability (Pemetrexed; 0.06325 µM) | relative viability (Pemetrexed; 0.2 µM) | relative viability (Pemetrexed; 0.2 µM, anchor plate) |
| --- | --- | --- | --- | --- | --- | --- | --- | --- | --- | --- | --- |
| LCLC-103H | 1.12 | 0.979 | 0.822 | 1.09 | 0.91 | 0.89 | 1.01 | 1.01 | 1.02 | 0.935 | 0.477 |
| LK-2 | 1.22 | 1 | – | 1.06 | 0.87 | 0.854 | 0.925 | 1.06 | 0.868 | 0.685 | 0.284 |
| LOU-NH91 | 1.07 | 0.882 | 0.878 | 0.762 | 0.932 | 0.948 | 1 | 1.06 | 0.678 | 0.521 | 0.388 |
| LU99A | 1.08 | 1.08 | 0.814 | 1.14 | 1.05 | 0.869 | 0.92 | 1.07 | 1.08 | – | – |
| LXF-289 | 1.05 | 1.07 | 1 | 1.07 | 1.04 | 0.938 | 0.999 | 1.04 | 1.02 | 0.939 | 0.905 |
| NCI-H23 | 1.15 | 1.07 | 0.69 | 0.713 | 1 | 0.893 | 0.987 | 1.18 | 0.91 | 0.905 | 0.714 |
| NCI-H322M | 1.08 | 1.03 | 0.808 | 0.849 | 0.873 | 1.09 | 0.934 | 0.98 | 0.983 | 0.741 | 0.634 |
| NCI-H358 | 1.04 | 0.864 | 0.794 | 0.901 | 0.861 | 0.958 | 0.925 | 0.864 | 0.293 | 0.24 | 0.176 |
| NCI-H441 | 1.13 | 0.941 | – | 1.12 | 1.05 | 0.917 | 1.01 | 1.1 | 0.688 | 0.452 | 0.255 |
| NCI-H460 | 0.996 | 1.01 | 1.01 | 1.02 | 1 | 0.878 | 0.969 | 1.03 | 0.745 | 0.116 | 0.065 |
| NCI-H520 | 0.958 | 0.987 | 0.84 | 0.922 | 0.79 | 0.938 | 0.969 | 0.95 | 0.936 | 0.975 | 0.693 |
| NCI-H522 | 1.13 | 0.865 | 0.916 | 0.997 | 0.974 | 1.18 | 0.999 | 0.916 | 0.868 | 1.03 | 1.03 |
| NCI-H596 | 1.05 | 1.01 | 0.976 | 1.04 | 0.809 | 0.996 | 0.909 | 0.942 | 0.732 | 0.436 | 0.499 |
| NCI-H647 | 1.01 | 1.08 | 0.719 | 0.847 | 0.702 | 0.734 | 1.01 | 1.04 | 0.883 | 0.289 | 0.182 |
| NCI-H650 | 0.938 | 1.01 | 0.885 | 1.05 | 0.889 | 0.851 | 0.905 | 0.987 | 0.857 | 1.02 | 0.925 |
| NCI-H661 | 1.07 | 0.976 | 0.98 | 1.01 | 0.994 | 1 | 0.975 | 1.02 | 0.977 | 0.967 | 0.923 |
| NCI-H727 | 1.07 | 1.16 | 0.715 | 0.987 | 0.887 | 0.844 | 0.931 | 0.899 | 0.958 | 0.899 | – |
| NCI-H838 | 0.958 | 0.993 | 0.851 | 0.921 | 0.753 | 0.99 | 0.917 | 1.08 | 0.869 | 0.359 | 0.257 |
| NCI-H1299 | 1.02 | 1.07 | 1.03 | 1.04 | 1 | 1.01 | 0.998 | 1.06 | 0.991 | 0.959 | – |
| NCI-H1355 | 1.03 | 1 | 0.871 | 0.961 | 0.861 | 0.787 | 0.962 | 0.999 | 1.05 | 1 | 1.04 |
| NCI-H1395 | 1.07 | 0.991 | 0.846 | 0.912 | 0.741 | 0.796 | 1.02 | 1.09 | 0.994 | 0.86 | 0.892 |
| NCI-H1437 | 1.01 | 0.995 | 0.965 | 1.12 | 1.05 | 0.741 | 0.974 | 0.998 | 0.704 | 0.493 | 0.319 |
| NCI-H1563 | 0.96 | 0.997 | 0.909 | 0.946 | 0.876 | 0.907 | 0.955 | 0.991 | 1.03 | 1.01 | 0.799 |
| NCI-H1623 | 1 | 0.961 | 0.846 | 0.949 | 0.817 | 0.899 | 1.04 | 0.976 | 0.912 | 0.955 | – |

Reference: the supplement of paper PMC10307832
